The results in this text go back to patent US10722587B2, “Composition for intracellular delivery containing adenovirus protein VI-derived peptide and anticancer pharmaceutical composition containing same” (priority 2015, dated 2020).

Molecules are shown by their SMILES.

For this data set, the system named is Hela cell line. In words: MTT assay, oncolytic capability and cytotoxicity. Format: cell-based, human. Particulars: 4 days. The procedure: In this example, to confirm the adenoviral proliferation capability and oncolytic capability of Ad pDNA-polymer-peptide complexes, a complex was manufactured using polymer PAM-ABP and d pDNA containing viral DNA of H-Rd19-k35/DCN/shcMet, which is a tumor-selective oncolytic adenovirus expressing adenovirus DNA such as decorin (DCN) and shcMet. A human uterine cancer cell line, Hela cell line, was inoculated into a 12-well plate, and after 24 hours, treated with naked Ad pDNA, Ad pDNA/PAM-ABP, Ad pDNA/PAM-ABP/peptide complexes in which 6 types of peptides such as mVI, mVI-TAT, mVI-TAT-A, mVI-G-TAT-A, mVI-A-TAT and mVI-G-A-TAT were conjugated with Ad pDNA/PAM-ABP, and controls such as VI-9R and a complex with a TAT peptide. In addition, to verify cytotoxicity, the cells were treated with PAM-ABP or a peptide alone. Four days after the treatment, the culture solution was collected, and the number of adenovirus particles was detected using Q-PCR, and to verify oncolytic capability, 2 mg/ml of 3-(4,5-dimethylthiazol-2-yl)-2,5-diphenyl-tetrazolium bromide (MTT; Sigma Aldrich) in PBS was added at 200 μL to each well of the supernatant-removed plate, and cultured at 37° C. for 4 hours. Afterward, the supernatant was removed, the precipitate was dissolved in 1.0 ml dimethyl sulfoxide, the absorbance was analyzed by reading the plate at 540 nm on a microplate reader, and a non-treated cell group was classified as a negative control.
As to `CC[C@H](C)[C@H](NC(=O)CNC(=O)[C@H](CO)NC(=O)[C@H](Cc1c[nH]c2ccccc12)NC(=O)[C@H](CC(C)C)NC(=O)[C@H](CO)NC(=O)CNC(=O)[C@H](Cc1c[nH]c2ccccc12)NC(=O)[C@@H](N)CO)C(=O)N[C@@H](CCCCN)C(=O)N[C@@H](CC(N)=O)C(=O)N[C@@H](Cc1ccccc1)C(=O)NCC(=O)N[C@@H](CCCNC(=N)N)C(=O)N[C@@H](CCCNC(=N)N)C(=O)N[C@@H](CCCNC(=N)N)C(=O)N[C@@H](CCCNC(=N)N)C(=O)N[C@@H](CCCNC(=N)N)C(=O)N[C@@H](CCCNC(=N)N)C(=O)N[C@@H](CCCNC(=N)N)C(=O)N[C@@H](CCCNC(=N)N)C(=O)N[C@@H](CCCNC(=N)N)C(=O)O` [VI-9R], the “cytotoxicity of peptide alone” value is reported as “high cytotoxicity”. With `CC[C@H](C)[C@H](NC(=O)CNC(=O)[C@H](CO)NC(=O)[C@H](Cc1c[nH]c2ccccc12)NC(=O)[C@H](CC(C)C)NC(=O)[C@H](CO)NC(=O)CNC(=O)[C@H](Cc1c[nH]c2ccccc12)NC(=O)[C@H](CO)NC(=O)[C@H](Cc1ccccc1)NC(=O)[C@H](C)N)C(=O)N[C@@H](CCCCN)C(=O)N[C@@H](CC(N)=O)C(=O)N[C@@H](Cc1ccccc1)C(=O)NCC(=O)N[C@@H](C)C(=O)N[C@@H](CC(C)C)C(=O)N[C@@H](C)C(=O)N[C@@H](CCC(=O)O)C(=O)N[C@@H](CCCNC(=N)N)C(=O)N[C@@H](CCCCN)C(=O)N[C@@H](CCCCN)C(=O)N[C@@H](CCCNC(=N)N)C(=O)N[C@@H](CCCNC(=N)N)C(=O)N[C@@H](CCC(N)=O)C(=O)N[C@@H](CCCNC(=N)N)C(=O)N[C@@H](CCCNC(=N)N)C(=O)N[C@@H](CCCNC(=N)N)C(=O)O` [mVI-A-TAT] the entry was “relatively high cytotoxicity”; with `CC[C@H](C)[C@H](NC(=O)CNC(=O)[C@H](CO)NC(=O)[C@H](Cc1c[nH]c2ccccc12)NC(=O)[C@H](CC(C)C)NC(=O)[C@H](CO)NC(=O)CNC(=O)[C@H](Cc1c[nH]c2ccccc12)NC(=O)[C@H](CO)NC(=O)[C@H](Cc1ccccc1)NC(=O)[C@H](C)N)C(=O)N[C@@H](CCCCN)C(=O)N[C@@H](CC(N)=O)C(=O)N[C@@H](Cc1ccccc1)C(=O)NCC(=O)N[C@@H](Cc1ccccc1)C(=O)N[C@@H](CC(C)C)C(=O)NCC(=O)N[C@@H](C)C(=O)N[C@@H](CC(C)C)C(=O)N[C@@H](C)C(=O)N[C@@H](CCC(=O)O)C(=O)N[C@@H](CCCNC(=N)N)C(=O)N[C@@H](CCCCN)C(=O)N[C@@H](CCCCN)C(=O)N[C@@H](CCCNC(=N)N)C(=O)N[C@@H](CCCNC(=N)N)C(=O)N[C@@H](CCC(N)=O)C(=O)N[C@@H](CCCNC(=N)N)C(=O)N[C@@H](CCCNC(=N)N)C(=O)N[C@@H](CCCNC(=N)N)C(=O)O` [mVI-G-A-TAT], “relatively high cytotoxicity”; with `CC[C@H](C)[C@H](NC(=O)CNC(=O)[C@H](CO)NC(=O)[C@H](Cc1c[nH]c2ccccc12)NC(=O)[C@H](CC(C)C)NC(=O)[C@H](CO)NC(=O)CNC(=O)[C@H](Cc1c[nH]c2ccccc12)NC(=O)[C@H](CO)NC(=O)[C@H](Cc1ccccc1)NC(=O)[C@H](C)N)C(=O)N[C@@H](CCCCN)C(=O)N[C@@H](CC(N)=O)C(=O)N[C@@H](Cc1ccccc1)C(=O)NCC(=O)N[C@@H](Cc1ccccc1)C(=O)N[C@@H](CC(C)C)C(=O)NCC(=O)N[C@@H](CCCNC(=N)N)C(=O)N[C@@H](CCCCN)C(=O)N[C@@H](CCCCN)C(=O)N[C@@H](CCCNC(=N)N)C(=O)N[C@@H](CCCNC(=N)N)C(=O)N[C@@H](CCC(N)=O)C(=O)N[C@@H](CCCNC(=N)N)C(=O)N[C@@H](CCCNC(=N)N)C(=O)N[C@@H](CCCNC(=N)N)C(=O)N[C@@H](C)C(=O)N[C@@H](CC(C)C)C(=O)N[C@@H](C)C(=O)N[C@@H](CCC(=O)O)C(=O)O` [mVI-G-TAT-A], “relatively high cytotoxicity”. The value for `CC[C@H](C)[C@H](NC(=O)CNC(=O)[C@H](CO)NC(=O)[C@H](Cc1c[nH]c2ccccc12)NC(=O)[C@H](CC(C)C)NC(=O)[C@H](CO)NC(=O)CNC(=O)[C@H](Cc1c[nH]c2ccccc12)NC(=O)[C@H](CO)NC(=O)[C@H](Cc1ccccc1)NC(=O)[C@H](C)N)C(=O)N[C@@H](CCCCN)C(=O)N[C@@H](CC(N)=O)C(=O)N[C@@H](Cc1ccccc1)C(=O)NCC(=O)O` [mVI] was “relatively high cytotoxicity”.
